Assays:
Type in all cases: in vivo
Myzus persicae [1] = test: Myzus persicae spray test (MYZUPE), Chinese cabbage leaf discs; conditions: Myzus persicae, foliar, 120 h
Protocol: (§1) [table] To produce a suitable active ingredient formulation, 1 part by weight of active ingredient is dissolved with the specified parts by weight of solvent and made up to the desired concentration with water containing an emulsifier concentration of 1000 ppm. To produce further test concentrations, the formulation is diluted with emulsifier-containing water. Discs of Chinese cabbage leaves (Brassica pekinensis) infested by all stages of the green peach aphid (Myzus persicae) are sprayed with an active ingredient formulation of the desired concentration. After 5 days, the efficacy in % is determined. 100% means that all the aphids have been killed; 0% means that no aphids have been killed. [table] To produce an appropriate active ingredient formulation, 1 part by weight of active ingredient is dissolved with the stated parts by weight of solvent and made up with water containing an emulsifier concentration of 1000 ppm until the desired concentration is attained. For production of further test concentrations, the mixture is diluted with emulsifier-containing water. Discs of chinese cabbage leaves (Brassica pekinensis) infested by all stages of the green peach aphid (Myzus persicae) are sprayed with an active ingredient formulation of the desired concentration. After the desired time, the efficacy in % is determined. 100% means that all aphids have been killed; 0% means that no aphids have been killed.

Musca domestica = Musca domestica test; conditions: 100 ppm, adult houseflies, after 2 days
Protocol: Solvent: dimethyl sulfoxide To produce a suitable active ingredient formulation, 10 mg of active ingredient are mixed with 0.5 ml of dimethyl sulfoxide, and the concentrate is diluted with water to the desired concentration. Vessels containing a sponge treated with sugar solution and the active ingredient formulation of the desired concentration are populated with 10 adult houseflies (Musca domestica). After 2 days, the kill in % is determined. 100% means that all of the flies have been killed; 0% means that none of the flies have been killed.

Lucilia cuprina = Lucilia cuprina test; conditions: 48 h, L1 larvae, after 2 days, read-out: efficacy (kill)
Protocol: Solvent: dimethyl sulfoxide To produce a suitable active ingredient formulation, 10 mg of active ingredient are mixed with 0.5 ml of dimethyl sulfoxide, and the concentrate is diluted with water to the desired concentration. About 20 L1 larvae of the Australian sheep blowfly (Lucilia cuprina) are transferred into a test vessel containing minced horsemeat and the active ingredient formulation of the desired concentration. After 2 days, the kill in % is determined. 100% means that all the larvae have been killed; 0% means that no larvae have been killed.

Myzus persicae [2] = test: Myzus persicae oral test; conditions: 120 h, after 5 days, read-out: efficacy
Protocol: [table] To produce a suitable active ingredient formulation, 1 part by weight of active ingredient is dissolved with the stated parts by weight of solvent and made up to the desired concentration with water. 50 μl of the active ingredient preparation are transferred into microtitre plates and made up to a final volume of 200 μl with 150 μl of IPL41 insect medium (33%+15% sugar). Subsequently, the plates are sealed with parafilm, which a mixed population of green peach aphids (Myzus persicae) within a second microtitre plate is able to puncture and imbibe the solution. After 5 days, the efficacy in % is determined. 100% means that all the aphids have been killed; 0% means that no aphids have been killed.

Phaedon cochleariae = Phaedon cochleariae spray test (PHAECO), Chinese cabbage leaf discs; conditions: Phaedon cochleariae, foliar, 168 h; for pest or weed control at 100 g/ha: 7 days (7 dat), read-out: efficacy
Protocol: as §1, with “pekinensis)” for “pekinensis) infested by all stages of the green peach aphid (Myzus persicae)”, “concentration and, after drying, populated with larvae of the mustard beetle (Phaedon cochleariae).” for “concentration.”, “7” for “5”, “beetle larvae” for “aphids”

Aphis gossypii = Aphis gossypii spray test (APHIGO), cotton plants; conditions: Aphis gossypii, 144 h, 20 ppm, 6 dat, read-out: % efficacy
Protocol: (§2) [table] To produce an appropriate active ingredient formulation, 1 part by weight of active ingredient is dissolved with the specified parts by weight of solvent and made up with water containing an emulsifier concentration of 1000 ppm until the desired concentration is attained. To produce further test concentrations, the mixture is diluted with emulsifier-containing water. If addition of ammonium salts or/and penetrants is required, these are each added to the preparation solution in a concentration of 1000 ppm. Cotton plants (Gossypium hirsutum) severely infested by the cotton aphid (Aphis gossypii) are sprayed with an active ingredient formulation of the desired concentration. After the desired time, the kill in % is determined. 100% means that all aphids have been killed; 0% means that no aphids have been killed.

Myzus persicae [3] = test: Myzus persicae drench test (MYZUPE D), savoy cabbage plants; conditions: soil, 240 h, 10 dat, read-out: % efficacy
Protocol: [table] To produce an appropriate active ingredient formulation, 1 part by weight of active ingredient is mixed with the specified amounts of solvent and emulsifier and the concentrate is diluted to the desired concentration with water, it being necessary to take into account the volume of soil into which drenching is effected. It should be ensured that a concentration of 40 ppm of emulsifier in the soil is not exceeded. For production of further test concentrations, the mixture is diluted with water. Savoy cabbage plants (Brassica oleracea) in soil pots, infested by all stages of the green peach aphid (Myzus persicae), are drenched with an active ingredient formulation of the desired concentration. After the desired time, the efficacy in % is determined. 100% means that all the aphids have been killed; 0% means that no aphids have been killed.

Ctenocephalides felis [4] = test: Ctenocephalides felis oral test; conditions: 100 ppm, after 2 days
Protocol: Solvent: dimethyl sulfoxide To produce a suitable active ingredient formulation, 10 mg of active ingredient are mixed with 0.5 ml of dimethyl sulfoxide. Dilution with citrated cattle blood gives the desired concentration. About 20 unfed adult cat fleas (Ctenocephalides felis) are placed into a chamber which is closed at the top and bottom with gauze. A metal cylinder whose bottom end is closed with parafilm is placed onto the chamber. The cylinder contains the blood/active ingredient formulation, which can be imbibed by the fleas through the parafilm membrane. After 2 days, the kill in % is determined. 100% means that all of the fleas have been killed; 0% means that none of the fleas have been killed.

Nezara viridula = Nezara viridula spray test (NEZARA / NEZAVI); conditions: Nezara viridula, 96 h, 4 dat, read-out: % efficacy
Protocol: as §2, with “ppm. Barley” for “ppm. Cotton”, “plants (Hordeum vulgare) infected with larvae of” for “plants (Gossypium hirsutum) severely infested by”, “the southern green shield bug (Nezara viridula)” for “the cotton aphid (Aphis gossypii)”, “the efficacy” for “the kill”, “all bugs” for “all aphids”, “no bugs” for “no aphids”

Ctenocephalides felis [5] = test: Ctenocephalides felis in vitro contact test with adult cat fleas; conditions: 5 μg/cm^2 (=500 g/ha), after 48 h
Protocol: For the coating of the test tubes, 9 mg of active ingredient are first dissolved in 1 ml of acetone p.a. and then diluted to the desired concentration with acetone p.a. 250 μl of the solution are distributed homogeneously on the inner walls and the base of a 25 ml glass tube by turning and rocking on an orbital shaker (rocking rotation at 30 rpm for 2 h). With 900 ppm of active ingredient solution and internal surface area 44.7 cm^2, given homogeneous distribution, an area-based dose of 5 μg/cm^2 is achieved. After the solvent has evaporated off, the tubes are populated with 5-10 adult cat fleas (Ctenocephalides felis), sealed with a perforated plastic lid and incubated in a horizontal position at room temperature and ambient humidity. After 48 h, efficacy is determined. To this end, the tubes are stood upright and the fleas are knocked to the base of the tube. Fleas which remain motionless at the base or move in an uncoordinated manner are considered to be dead or moribund. […] 100% efficacy means that all the fleas were dead or moribund. 0% efficacy means that no fleas were harmed.

Meloidogyne incognita = Meloidogyne incognita test (MELGIN); conditions: Meloidogyne incognita, 336 h, 14 days (14 dat), read-out: efficacy (nematicidal, gall formation)
Protocol: [table] To produce a suitable active ingredient formulation, 1 part by weight of active ingredient is mixed with the stated amount of solvent and the concentrate is diluted to the desired concentration with water. Vessels are filled with sand, active ingredient solution, an egg/larvae suspension of the southern root-knot nematode (Meloidogyne incognita) and lettuce seeds. The lettuce seeds germinate and the plants develop. The galls develop on the roots. After 14 days, the nematicidal efficacy in % is determined by the formation of galls. 100% means that no galls were found; 0% means that the number of galls on the treated plants corresponds to the untreated control. [table] To produce an appropriate active ingredient formulation, 1 part by weight of active ingredient is mixed with the specified amount of solvent and the concentrate is diluted to the desired concentration with water. Vessels are filled with sand, active ingredient solution, an egg/larvae suspension of the southern root-knot nematode (Meloidogyne incognita) and lettuce seeds. The lettuce seeds germinate and the plants develop. The root-knots develop on the roots. After the desired time, the nematicidal effect is determined from the formation of root-knots in %. 100% means that no root-knots were found; 0% means that the number of root-knots on the treated plants corresponds to that on the untreated control.

Myzus persicae [6] = test: Myzus persicae spray test (MYZUPE S), bell pepper plants; conditions: 144 h, 6 dat, read-out: % efficacy
Protocol: [table] To produce an appropriate active ingredient formulation, 1 part by weight of active ingredient is dissolved with the specified parts by weight of solvent and made up with water containing an emulsifier concentration of 1000 ppm until the desired concentration is attained. To produce further test concentrations, the mixture is diluted with emulsifier-containing water. If addition of ammonium salts or/and penetrants is required, these are each added to the preparation solution in a concentration of 1000 ppm. Bell pepper plants (Capsicum annuum) severely infested by the green peach aphid (Myzus persicae) are treated by spraying with the active ingredient formulation in the desired concentration. After the desired time, the kill in % is determined. 100% means that all the animals have been killed; 0% means that no animals have been killed.

Tetranychus urticae = Tetranychus urticae spray test, OP-resistant (TETRUR); conditions: Tetranychus urticae, 144 h; TETRUR, 100 g/ha, 6 dat; read-out: % efficacy
Protocol: [table] To produce a suitable active ingredient formulation, 1 part by weight of active ingredient is dissolved with the specified parts by weight of solvent and made up to the desired concentration with water containing an emulsifier concentration of 1000 ppm. To produce further test concentrations, the formulation is diluted with emulsifier-containing water. Discs of bean leaves (Phaseolus vulgaris) infested with all stages of the greenhouse red spider mite (Tetranychus urticae) are sprayed with an active ingredient formulation of the desired concentration. After 6 days, the efficacy in % is determined. 100% means that all the spider mites have been killed; 0% means that no spider mites have been killed.

[7] = 5 days (5 dat), read-out: efficacy

Row | Structure (SMILES) | pest or weed control at 100 g/ha (Myzus persicae [1]; [7]) | pest or weed control at 100 ppm (Lucilia cuprina) | pest or weed control at 0.8 ppm (Myzus persicae [2]) | pest or weed control at 100 g/ha (Phaedon cochleariae) | efficacy (kill) (Ctenocephalides felis [4]) | efficacy (Ctenocephalides felis [5]) | percent efficacy (larval mortality) at a fixed application rate at 20 g/ha (Phaedon cochleariae; PHAECO, 20 g/ha, 7 dat) | further results
1 | CCNC(=O)c1ccc(S(=O)(=O)CC)c(-c2nc3cc(C(F)(F)C(F)(F)F)nnc3n2C)n1 [Example I-04, N-ethyl-5-(ethylsulfonyl)-6-[7-methyl-3-(pentafluoroethyl)-7H-imidazo[4,5-c]pyridazin-6-yl]pyridine-2-carboxamide] | 100% | 100% | 100% | 100% | – | – | – | efficacy (kill) (Musca domestica): 80%
2 | CNC(=O)Nc1ccc(S(C)(=O)=O)c(-c2nc3cc(C(F)(F)C(F)(F)F)nnc3n2C)n1 [Example I-11] | – | 100% | 100% | 100% | 100% | 100% | – | Emax at 20 ppm (Aphis gossypii): 95%; Emax at 0.8 ppm (Myzus persicae [3]; 0.8 ppm): 95%; Emax at 4 ppm (Myzus persicae [3]; 4 ppm): 98%; Emax at 20 g/ha (Nezara viridula; 20 g/ha): 100%; Emax at 20 g/ha (Phaedon cochleariae; PHAECO, 20 g/ha, 7 dat, read-out: % efficacy): 83%
3 | CN(C)C(=O)Nc1ccc(S(C)(=O)=O)c(-c2nc3cc(C(F)(F)C(F)(F)F)nnc3n2C)n1 [Example I-12] | 90% | 100% | 100% | 100% | 100% | 100% | 100% | pest or weed control at 20 ppm (Meloidogyne incognita): 100%; pest or weed control at 20 g/ha (Myzus persicae [1]; 20 g/ha, 5 days (5 dat), read-out: efficacy): 90%
4 | CCS(=O)(=O)c1ccc(N(C)C(=O)NC)nc1-c1nc2cc(C(F)(F)F)nnc2n1C [reference compound] | – | – | – | – | – | – | 33% | Emax at 4 g/ha (Myzus persicae [1]; MYZUPE, 4 g/ha, 5 dat, read-out: % efficacy): 0%; Emax at 0.16 ppm (Myzus persicae [6]; 0.16 ppm): 20%; Emax at 0.8 ppm (Myzus persicae [6]; 0.8 ppm): 65%; Emax at 0.16 ppm (Myzus persicae [3]; 0.16 ppm): 0%; Emax at 100 g/ha (Tetranychus urticae): 0%; Emax at 4 g/ha (Nezara viridula; 4 g/ha): 0%; Emax at 4 g/ha (Phaedon cochleariae; PHAECO, 4 g/ha, 7 dat, read-out: % efficacy): 0%
